According to PubChem BioAssay (NCI):
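GI50 is the concentration that inhibits growth by half. The concentration for full growth arrest is given as TGI.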

What was measured:
Assay in all cases: growth of human tumour cells (NCI), 384-well format
M14 melanoma = system: M14 melanoma
MDA-MB-468 breast = system: MDA-MB-468 breast
SF-295 CNS = system: SF-295 CNS
786-0 renal = system: 786-0 renal
UO-31 renal = system: UO-31 renal
SF-539 CNS = system: SF-539 CNS
SN12C renal = system: SN12C renal
NCI-H23 lung = system: NCI-H23 lung
BT-549 breast = system: BT-549 breast
COLO 205 colon = system: COLO 205 colon
DU-145 prostate = system: DU-145 prostate
SF-268 CNS = system: SF-268 CNS
HOP-62 NSCLC = system: HOP-62 NSCLC
OVCAR-4 ovarian = system: OVCAR-4 ovarian
UACC-62 melanoma = system: UACC-62 melanoma
HCT-116 colon = system: HCT-116 colon
SK-MEL-2 melanoma = system: SK-MEL-2 melanoma
OVCAR-5 ovarian = system: OVCAR-5 ovarian
U251 glioblastoma = system: U251 glioblastoma
HOP-92 NSCLC = system: HOP-92 NSCLC
OVCAR-3 ovarian = system: OVCAR-3 ovarian
MDA-MB-435 melanoma = system: MDA-MB-435 melanoma
PC-3 prostate = system: PC-3 prostate
UACC-257 melanoma = system: UACC-257 melanoma
HS 578T breast = system: HS 578T breast
A549 NSCLC = system: A549 NSCLC
NCI-H226 lung = system: NCI-H226 lung
SR leukemia = system: SR leukemia
TK-10 renal = system: TK-10 renal
MCF7 breast = system: MCF7 breast
NCI/ADR-RES ovarian = system: NCI/ADR-RES ovarian
MALME-3M melanoma = system: MALME-3M melanoma
ACHN renal = system: ACHN renal
RPMI-8226 leukemia = system: RPMI-8226 leukemia
NCI-H460 NSCLC = system: NCI-H460 NSCLC
SNB-19 CNS = system: SNB-19 CNS
SK-OV-3 ovarian = system: SK-OV-3 ovarian
SK-MEL-5 melanoma = system: SK-MEL-5 melanoma
HCT-15 colon = system: HCT-15 colon
MDA-MB-231 breast = system: MDA-MB-231 breast
LOX IMVI melanoma = system: LOX IMVI melanoma
EKVX NSCLC = system: EKVX NSCLC
CCRF-CEM leukemia = system: CCRF-CEM leukemia
HCC-2998 colon = system: HCC-2998 colon
CAKI-1 renal = system: CAKI-1 renal
MOLT-4 leukemia = system: MOLT-4 leukemia
HL-60(TB) leukemia = system: HL-60(TB) leukemia

C=CC(=O)N1CCC(CNc2ncnc(N)c2-c2ccc(Oc3ccccc3)cc2)CC1
GI50 (M14 melanoma): 29.6 µM
TGI (M14 melanoma): 77.4 µM
GI50 (MDA-MB-468 breast): 10.6 µM
TGI (MDA-MB-468 breast): 23.2 µM
GI50 (SF-295 CNS): 26.1 µM
TGI (SF-295 CNS): > 71.1 µM
GI50 (786-0 renal): 18.7 µM
TGI (786-0 renal): 42.9 µM
GI50 (UO-31 renal): 22.3 µM
TGI (UO-31 renal): > 100 µM
GI50 (SF-539 CNS): 20.9 µM
TGI (SF-539 CNS): > 58.6 µM
GI50 (SN12C renal): 17 µM
TGI (SN12C renal): 43 µM
GI50 (NCI-H23 lung): 20.3 µM
TGI (NCI-H23 lung): 42.2 µM
GI50 (BT-549 breast): 14.1 µM
TGI (BT-549 breast): 28.6 µM
GI50 (COLO 205 colon): 22.5 µM
TGI (COLO 205 colon): 49.9 µM
GI50 (DU-145 prostate): 19.5 µM
TGI (DU-145 prostate): 46.4 µM
GI50 (SF-268 CNS): 17 µM
TGI (SF-268 CNS): 37.9 µM
GI50 (HOP-62 NSCLC): 20.7 µM
TGI (HOP-62 NSCLC): 48.3 µM
GI50 (OVCAR-4 ovarian): 21.2 µM
TGI (OVCAR-4 ovarian): 69.7 µM
GI50 (UACC-62 melanoma): 16.6 µM
TGI (UACC-62 melanoma): 33.5 µM
GI50 (HCT-116 colon): 21.1 µM
TGI (HCT-116 colon): 48.3 µM
GI50 (SK-MEL-2 melanoma): 20.5 µM
TGI (SK-MEL-2 melanoma): 36.9 µM
GI50 (OVCAR-5 ovarian): 38.1 µM
TGI (OVCAR-5 ovarian): > 100 µM
GI50 (U251 glioblastoma): 18.6 µM
TGI (U251 glioblastoma): 40.6 µM
GI50 (HOP-92 NSCLC): 15.2 µM
TGI (HOP-92 NSCLC): 39.1 µM
GI50 (OVCAR-3 ovarian): 16.1 µM
TGI (OVCAR-3 ovarian): 30.5 µM
GI50 (MDA-MB-435 melanoma): 28.7 µM
TGI (MDA-MB-435 melanoma): > 73.3 µM
GI50 (PC-3 prostate): 18.5 µM
TGI (PC-3 prostate): 41.2 µM
GI50 (UACC-257 melanoma): 18.1 µM
TGI (UACC-257 melanoma): 34.2 µM
GI50 (HS 578T breast): 11.4 µM
TGI (HS 578T breast): 24.5 µM
GI50 (A549 NSCLC): 21 µM
TGI (A549 NSCLC): 55.4 µM
GI50 (NCI-H226 lung): 15.6 µM
TGI (NCI-H226 lung): 36 µM
GI50 (SR leukemia): 8.25 µM
TGI (SR leukemia): 21.3 µM
GI50 (TK-10 renal): 18.3 µM
TGI (TK-10 renal): 36.2 µM
GI50 (MCF7 breast): 25.7 µM
TGI (MCF7 breast): 98.1 µM
GI50 (NCI/ADR-RES ovarian): 15.9 µM
TGI (NCI/ADR-RES ovarian): 34.5 µM
GI50 (MALME-3M melanoma): 30.5 µM
TGI (MALME-3M melanoma): > 73.5 µM
GI50 (ACHN renal): 25.4 µM
TGI (ACHN renal): 66.4 µM
GI50 (RPMI-8226 leukemia): 9.92 µM
TGI (RPMI-8226 leukemia): 22.3 µM
GI50 (NCI-H460 NSCLC): 19.6 µM
TGI (NCI-H460 NSCLC): 41.2 µM
GI50 (SNB-19 CNS): 23.4 µM
TGI (SNB-19 CNS): 71.7 µM
GI50 (SK-OV-3 ovarian): 16.2 µM
TGI (SK-OV-3 ovarian): 44.9 µM
GI50 (SK-MEL-5 melanoma): 16.1 µM
TGI (SK-MEL-5 melanoma): 30.6 µM
GI50 (HCT-15 colon): 23.6 µM
TGI (HCT-15 colon): 60 µM
GI50 (MDA-MB-231 breast): 20.4 µM
TGI (MDA-MB-231 breast): 52.6 µM
GI50 (LOX IMVI melanoma): 17.2 µM
TGI (LOX IMVI melanoma): 31 µM
GI50 (EKVX NSCLC): 20.1 µM
TGI (EKVX NSCLC): 48.7 µM
GI50 (CCRF-CEM leukemia): 17.2 µM
TGI (CCRF-CEM leukemia): 31 µM
GI50 (HCC-2998 colon): 18.7 µM
TGI (HCC-2998 colon): 33.2 µM
GI50 (CAKI-1 renal): 16.9 µM
TGI (CAKI-1 renal): 43.1 µM
GI50 (MOLT-4 leukemia): 14.5 µM
TGI (MOLT-4 leukemia): 27.7 µM
GI50 (HL-60(TB) leukemia): 11.8 µM
TGI (HL-60(TB) leukemia): 24 µM
